Test results reported in ChEMBL document CHEMBL4800728, “Data for DCP probe JNJ-54119936” (2021).

Assays:
[1] = target: T1, Bile acid receptor (Homo sapiens) (UniProt Q96RI1); experiment: (§1) FXR In-house nuclear receptor screen; details: Compound concentration 3.0 uM
T1 sequence (whole entry): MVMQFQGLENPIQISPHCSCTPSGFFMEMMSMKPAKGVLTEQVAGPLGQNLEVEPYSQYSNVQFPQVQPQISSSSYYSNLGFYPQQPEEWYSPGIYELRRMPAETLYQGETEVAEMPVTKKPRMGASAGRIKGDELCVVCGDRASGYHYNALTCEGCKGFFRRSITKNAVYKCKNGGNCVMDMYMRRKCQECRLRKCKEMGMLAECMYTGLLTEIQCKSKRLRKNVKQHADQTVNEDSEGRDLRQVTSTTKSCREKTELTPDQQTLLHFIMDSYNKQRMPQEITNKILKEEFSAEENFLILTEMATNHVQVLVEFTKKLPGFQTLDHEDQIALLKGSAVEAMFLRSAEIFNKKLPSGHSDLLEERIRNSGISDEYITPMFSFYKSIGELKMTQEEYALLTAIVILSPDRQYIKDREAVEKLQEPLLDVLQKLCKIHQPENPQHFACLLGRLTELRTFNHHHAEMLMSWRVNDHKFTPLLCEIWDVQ

Bile acid receptor = Bile acid receptor (Homo sapiens, UniProt Q96RI1); experiment: as §1
[2] = target: Endothelin-1 receptor (Homo sapiens) (UniProt P25101); experiment: ETA (h) CEREP screen; details: Compound concentration 10.0 uM
Endothelin-1 receptor (Homo sapiens), sequence (P25101 whole entry): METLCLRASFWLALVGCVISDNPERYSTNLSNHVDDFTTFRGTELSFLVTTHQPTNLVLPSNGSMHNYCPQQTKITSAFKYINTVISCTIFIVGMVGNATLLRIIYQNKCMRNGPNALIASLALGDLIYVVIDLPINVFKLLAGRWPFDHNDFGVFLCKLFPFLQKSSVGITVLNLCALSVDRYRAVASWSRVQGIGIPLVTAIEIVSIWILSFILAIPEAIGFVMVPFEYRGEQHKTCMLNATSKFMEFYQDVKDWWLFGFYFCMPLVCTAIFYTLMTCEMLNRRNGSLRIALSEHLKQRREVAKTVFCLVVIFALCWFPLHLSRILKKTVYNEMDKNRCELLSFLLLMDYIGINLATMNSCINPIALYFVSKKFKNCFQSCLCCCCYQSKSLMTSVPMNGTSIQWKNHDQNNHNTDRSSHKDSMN

inhibition [1]: 33%
IC50 (Bile acid receptor): 5.8 µM
inhibition [2]: 12%
SMILES: COc1nc2ccc([C@@](O)(c3ccccc3)C3CCN(C(C)=O)CC3)cc2c(Cl)c1Cc1ccc(-n2cccn2)cc1 [JNJ-54119936]
